The values that follow are results of earlier work, collected in patent EP2387991A1, “Vitamin E succinate stabilized pharmaceutical compositions, methods for the preparation and the use thereof” (Adventrx Pharmaceuticals, Inc., priority 2006, dated 2007).

As to `CC(=O)O[C@@]12CO[C@@H]1C[C@H](O)[C@@]1(C)C(=O)[C@H](O)C3=C(C)[C@@H](OC(=O)[C@H](O)[C@@H](NC(=O)OC(C)(C)C)c4ccccc4)C[C@@](O)([C@@H](OC(=O)c4ccccc4)[C@H]21)C3(C)C` [Docetaxel, (2R,3S)-N-carboxy-3-phenylisoserine, N-tert-butyl ester, 13-ester with 5β-20-epoxy-1,2α-,4,7β,10β,13α-hexahydroxytax-11-en-9-one 4-acetate 2-benzoate, trihydrate], the solubility in water result is on record as “practically insoluble”.
